Source: the supplement of paper PMC10307832

Legend:
Experiment in all cases: relative viability (nuclei count vs DMSO), 5 days (fraction); higher = more cells survive
DM3189 + Pictilisib = compound: C1CN(CCN1)C2=CC=C(C=C2)C3=CN4C(=C(C=N4)C5=CC=NC6=CC=CC=C56)N=C3 [DM3189] + CS(=O)(=O)N1CCN(Cc2cc3nc(-c4cccc5[nH]ncc45)nc(N4CCOCC4)c3s2)CC1 [Pictilisib] (partner 1 µM)
Procedure, shortened: (§1)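 Lung cancer cell lines were seeded in 1536-well plates and dosed by pin tool the next day, with either a single drug or a fixed anchor-drug dose combined with five library-drug doses (not always all listed) spaced in √10 steps. Five days later, one step fixed the cells and stained their nuclei (final 0.05% Triton X-100, 1% formaldehyde, 1 ug/ml Hoechst), and nuclei were counted on 4× images. Relative viability is the nuclei count in treated wells divided by the count in vehicle wells, and each value is the median of duplicate plates.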

DM3189 + Lapatinib = compound: C1CN(CCN1)C2=CC=C(C=C2)C3=CN4C(=C(C=N4)C5=CC=NC6=CC=CC=C56)N=C3 [DM3189] + CS(=O)(=O)CCNCc1ccc(-c2ccc3ncnc(Nc4ccc(OCc5cccc(F)c5)c(Cl)c4)c3c2)o1 [Lapatinib] (partner 2 µM)
Procedure, shortened: as §1

DM3189 + Foretinib = compound: C1CN(CCN1)C2=CC=C(C=C2)C3=CN4C(=C(C=N4)C5=CC=NC6=CC=CC=C56)N=C3 [DM3189] + COc1cc2c(Oc3ccc(NC(=O)C4(C(=O)Nc5ccc(F)cc5)CC4)cc3F)ccnc2cc1OCCCN1CCOCC1 [Foretinib] (partner 0.25 µM)
Procedure, shortened: as §1

DM3189 + Bortezomib = compound: C1CN(CCN1)C2=CC=C(C=C2)C3=CN4C(=C(C=N4)C5=CC=NC6=CC=CC=C56)N=C3 [DM3189] + CC(C)C[C@H](NC(=O)[C@H](Cc1ccccc1)NC(=O)c1cnccn1)B(O)O [Bortezomib] (partner 0.002 µM)
Procedure, shortened: as §1

DM3189 + Linsitinib = compound: C1CN(CCN1)C2=CC=C(C=C2)C3=CN4C(=C(C=N4)C5=CC=NC6=CC=CC=C56)N=C3 [DM3189] + C[C@]1(O)C[C@@H](c2nc(-c3ccc4ccc(-c5ccccc5)nc4c3)c3c(N)nccn32)C1 [Linsitinib] (partner 1 µM)
Procedure, shortened: as §1

DM3189 + Olaparib = compound: C1CN(CCN1)C2=CC=C(C=C2)C3=CN4C(=C(C=N4)C5=CC=NC6=CC=CC=C56)N=C3 [DM3189] + O=C(c1cc(Cc2n[nH]c(=O)c3ccccc23)ccc1F)N1CCN(C(=O)C2CC2)CC1 [Olaparib] (partner 8 µM)
Procedure, shortened: as §1

DM3189 + Navitoclax = compound: C1CN(CCN1)C2=CC=C(C=C2)C3=CN4C(=C(C=N4)C5=CC=NC6=CC=CC=C56)N=C3 [DM3189] + CC1(C)CCC(c2ccc(Cl)cc2)=C(CN2CCN(c3ccc(C(=O)NS(=O)(=O)c4ccc(N[C@H](CCN5CCOCC5)CSc5ccccc5)c(S(=O)(=O)C(F)(F)F)c4)cc3)CC2)C1 [Navitoclax] (partner 0.5 µM)
Procedure, shortened: as §1

DM3189 + Alpelisib = compound: C1CN(CCN1)C2=CC=C(C=C2)C3=CN4C(=C(C=N4)C5=CC=NC6=CC=CC=C56)N=C3 [DM3189] + Cc1nc(NC(=O)N2CCC[C@H]2C(N)=O)sc1-c1ccnc(C(C)(C)C(F)(F)F)c1 [Alpelisib] (partner 2 µM)
Procedure, shortened: as §1

DM3189 + Crizotinib = compound: C1CN(CCN1)C2=CC=C(C=C2)C3=CN4C(=C(C=N4)C5=CC=NC6=CC=CC=C56)N=C3 [DM3189] + C[C@@H](Oc1cc(-c2cnn(C3CCNCC3)c2)cnc1N)c1c(Cl)ccc(F)c1Cl [Crizotinib] (partner 1 µM)
Procedure, shortened: as §1

DM3189 = compound: C1CN(CCN1)C2=CC=C(C=C2)C3=CN4C(=C(C=N4)C5=CC=NC6=CC=CC=C56)N=C3 [DM3189]
Procedure, shortened: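 Vehicle-anchored 1536-well plates of lung cancer cell lines, held overnight at 37 °C, were pinned with five library-drug doses (not always all listed) spaced by √10. No medium change followed over the next 5 days, after which the cells were fixed, permeabilised and Hoechst-stained together and imaged at 4×. Nuclei were counted with MetaXpress, and viability is treated-well nuclei over vehicle-well nuclei, taken as a median across plates. Plates passed with control CV below 25% and at least one doubling.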

DM3189 + Luminespib = compound: C1CN(CCN1)C2=CC=C(C=C2)C3=CN4C(=C(C=N4)C5=CC=NC6=CC=CC=C56)N=C3 [DM3189] + CCNC(=O)c1noc(-c2cc(C(C)C)c(O)cc2O)c1-c1ccc(CN2CCOCC2)cc1 [Luminespib] (partner 0.01 µM)
Procedure, shortened: as §1

DM3189 + OSI-027 = compound: C1CN(CCN1)C2=CC=C(C=C2)C3=CN4C(=C(C=N4)C5=CC=NC6=CC=CC=C56)N=C3 [DM3189] + COc1cccc2cc(-c3nc([C@H]4CC[C@H](C(=O)O)CC4)n4ncnc(N)c34)[nH]c12 [OSI-027] (partner 0.5 µM)
Procedure, shortened: as §1

DM3189 + Dasatinib = compound: C1CN(CCN1)C2=CC=C(C=C2)C3=CN4C(=C(C=N4)C5=CC=NC6=CC=CC=C56)N=C3 [DM3189] + Cc1nc(Nc2ncc(C(=O)Nc3c(C)cccc3Cl)s2)cc(N2CCN(CCO)CC2)n1 [Dasatinib] (partner 0.075 µM)
Procedure, shortened: as §1

DM3189 + Phenformin = compound: C1CN(CCN1)C2=CC=C(C=C2)C3=CN4C(=C(C=N4)C5=CC=NC6=CC=CC=C56)N=C3 [DM3189] + N=C(N)NC(=N)NCCc1ccccc1 [Phenformin] (partner 250 µM)
Procedure, shortened: as §1

DM3189 + Tozasertib = compound: C1CN(CCN1)C2=CC=C(C=C2)C3=CN4C(=C(C=N4)C5=CC=NC6=CC=CC=C56)N=C3 [DM3189] + Cc1cc(Nc2cc(N3CCN(C)CC3)nc(Sc3ccc(NC(=O)C4CC4)cc3)n2)n[nH]1 [Tozasertib] (partner 0.1 µM)
Procedure, shortened: as §1

## NCI-H1299
DM3189 + Pictilisib; first compound 0.08 µM
  relative viability: 0.911
DM3189 + Pictilisib; first compound 0.253 µM
  relative viability: 0.776
DM3189 + Pictilisib; first compound 0.8 µM
  relative viability: 0.59
DM3189 + Pictilisib; first compound 2.53 µM
  relative viability: 0.495
DM3189 + Lapatinib; first compound 0.08 µM
  relative viability: 1.01
DM3189 + Lapatinib; first compound 0.253 µM
  relative viability: 0.926
DM3189 + Lapatinib; first compound 0.8 µM
  relative viability: 0.899
DM3189 + Lapatinib; first compound 2.53 µM
  relative viability: 0.94
DM3189 + Foretinib; first compound 0.08 µM
  relative viability: 1.09
DM3189 + Foretinib; first compound 0.253 µM
  relative viability: 0.996
DM3189 + Foretinib; first compound 0.8 µM
  relative viability: 1.06
DM3189 + Foretinib; first compound 2.53 µM
  relative viability: 1.08
DM3189 + Bortezomib; first compound 0.08 µM
  relative viability: 1.06
DM3189 + Bortezomib; first compound 0.253 µM
  relative viability: 1.01
DM3189 + Bortezomib; first compound 0.8 µM
  relative viability: 1.01
DM3189 + Bortezomib; first compound 2.53 µM
  relative viability: 1.01
DM3189 + Linsitinib; first compound 0.08 µM
  relative viability: 0.998
DM3189 + Linsitinib; first compound 0.253 µM
  relative viability: 1.01
DM3189 + Linsitinib; first compound 0.8 µM
  relative viability: 0.958
DM3189 + Linsitinib; first compound 2.53 µM
  relative viability: 1.06
DM3189 + Olaparib; first compound 0.08 µM
  relative viability: 0.963
DM3189 + Olaparib; first compound 0.253 µM
  relative viability: 0.922
DM3189 + Olaparib; first compound 0.8 µM
  relative viability: 0.753
DM3189 + Olaparib; first compound 2.53 µM
  relative viability: 1.05
DM3189 + Navitoclax; first compound 0.08 µM
  relative viability: 1.03
DM3189 + Navitoclax; first compound 0.253 µM
  relative viability: 0.985
DM3189 + Navitoclax; first compound 0.8 µM
  relative viability: 1.02
DM3189 + Navitoclax; first compound 2.53 µM
  relative viability: 1.03
DM3189 + Alpelisib; first compound 0.08 µM
  relative viability: 1.09
DM3189 + Alpelisib; first compound 0.253 µM
  relative viability: 1.07
DM3189 + Alpelisib; first compound 0.8 µM
  relative viability: 0.968
DM3189 + Alpelisib; first compound 2.53 µM
  relative viability: 1.15
DM3189 + Crizotinib; first compound 0.08 µM
  relative viability: 0.99
DM3189 + Crizotinib; first compound 0.253 µM
  relative viability: 0.914
DM3189 + Crizotinib; first compound 0.8 µM
  relative viability: 0.924
DM3189 + Crizotinib; first compound 2.53 µM
  relative viability: 0.983
DM3189; 0.08 µM
  relative viability: 0.967
DM3189; 0.253 µM
  relative viability: 0.987
DM3189; 0.8 µM
  relative viability: 0.976
DM3189; 2.53 µM
  relative viability: 1.04

## Calu-6
DM3189 + Pictilisib; first compound 0.08 µM
  relative viability: 0.876
DM3189 + Pictilisib; first compound 0.253 µM
  relative viability: 0.658
DM3189 + Pictilisib; first compound 0.8 µM
  relative viability: 0.657
DM3189 + Pictilisib; first compound 2.53 µM
  relative viability: 0.692
DM3189 + Lapatinib; first compound 0.08 µM
  relative viability: 0.998
DM3189 + Lapatinib; first compound 0.253 µM
  relative viability: 0.905
DM3189 + Lapatinib; first compound 0.8 µM
  relative viability: 0.822
DM3189 + Lapatinib; first compound 2.53 µM
  relative viability: 0.885
DM3189 + Foretinib; first compound 0.08 µM
  relative viability: 0.901
DM3189 + Foretinib; first compound 0.253 µM
  relative viability: 0.768
DM3189 + Foretinib; first compound 0.8 µM
  relative viability: 0.715
DM3189 + Foretinib; first compound 2.53 µM
  relative viability: 0.765
DM3189 + Bortezomib; first compound 0.08 µM
  relative viability: 0.997
DM3189 + Bortezomib; first compound 0.253 µM
  relative viability: 0.941
DM3189 + Bortezomib; first compound 0.8 µM
  relative viability: 0.816
DM3189 + Bortezomib; first compound 2.53 µM
  relative viability: 0.784
DM3189 + Linsitinib; first compound 0.08 µM
  relative viability: 0.975
DM3189 + Linsitinib; first compound 0.253 µM
  relative viability: 0.958
DM3189 + Linsitinib; first compound 0.8 µM
  relative viability: 0.703
DM3189 + Linsitinib; first compound 2.53 µM
  relative viability: 0.763
DM3189 + Olaparib; first compound 0.08 µM
  relative viability: 0.625
DM3189 + Olaparib; first compound 0.253 µM
  relative viability: 0.529
DM3189 + Olaparib; first compound 0.8 µM
  relative viability: 0.45
DM3189 + Olaparib; first compound 2.53 µM
  relative viability: 0.608
DM3189 + Navitoclax; first compound 0.08 µM
  relative viability: 0.819
DM3189 + Navitoclax; first compound 0.253 µM
  relative viability: 0.678
DM3189 + Navitoclax; first compound 0.8 µM
  relative viability: 0.705
DM3189 + Navitoclax; first compound 2.53 µM
  relative viability: 0.486
DM3189 + Alpelisib; first compound 0.08 µM
  relative viability: 1.06
DM3189 + Alpelisib; first compound 0.253 µM
  relative viability: 0.855
DM3189 + Alpelisib; first compound 0.8 µM
  relative viability: 0.702
DM3189 + Alpelisib; first compound 2.53 µM
  relative viability: 0.77
DM3189 + Crizotinib; first compound 0.08 µM
  relative viability: 0.895
DM3189 + Crizotinib; first compound 0.253 µM
  relative viability: 0.788
DM3189 + Crizotinib; first compound 0.8 µM
  relative viability: 0.732
DM3189 + Crizotinib; first compound 2.53 µM
  relative viability: 0.544
DM3189; 0.08 µM
  relative viability: 1.03
DM3189; 0.253 µM
  relative viability: 0.966
DM3189; 0.8 µM
  relative viability: 0.812
DM3189; 2.53 µM
  relative viability: 1.03

## NCI-H1623
DM3189 + Luminespib; first compound 0.08 µM
  relative viability: 0.482
DM3189 + Luminespib; first compound 0.253 µM
  relative viability: 0.494
DM3189 + Luminespib; first compound 0.8 µM
  relative viability: 0.313
DM3189 + Luminespib; first compound 2.53 µM
  relative viability: 0.537
DM3189 + OSI-027; first compound 0.08 µM
  relative viability: 0.517
DM3189 + OSI-027; first compound 0.253 µM
  relative viability: 0.43
DM3189 + OSI-027; first compound 0.8 µM
  relative viability: 0.34
DM3189 + OSI-027; first compound 2.53 µM
  relative viability: 0.369
DM3189 + Dasatinib; first compound 0.08 µM
  relative viability: 0.588
DM3189 + Dasatinib; first compound 0.253 µM
  relative viability: 0.611
DM3189 + Dasatinib; first compound 0.8 µM
  relative viability: 0.456
DM3189 + Dasatinib; first compound 2.53 µM
  relative viability: 0.527
DM3189 + Foretinib; first compound 0.08 µM
  relative viability: 0.939
DM3189 + Foretinib; first compound 0.253 µM
  relative viability: 0.901
DM3189 + Foretinib; first compound 0.8 µM
  relative viability: 0.83
DM3189 + Foretinib; first compound 2.53 µM
  relative viability: 0.818
DM3189 + Phenformin; first compound 0.08 µM
  relative viability: 0.61
DM3189 + Phenformin; first compound 0.253 µM
  relative viability: 0.528
DM3189 + Phenformin; first compound 0.8 µM
  relative viability: 0.46
DM3189 + Phenformin; first compound 2.53 µM
  relative viability: 0.545
DM3189 + Tozasertib; first compound 0.08 µM
  relative viability: 0.406
DM3189 + Tozasertib; first compound 0.253 µM
  relative viability: 0.426
DM3189 + Tozasertib; first compound 0.8 µM
  relative viability: 0.408
DM3189 + Tozasertib; first compound 2.53 µM
  relative viability: 0.377
DM3189; 0.08 µM
  relative viability: 1.05
DM3189; 0.253 µM
  relative viability: 0.874
DM3189; 0.8 µM
  relative viability: 0.92
DM3189; 2.53 µM
  relative viability: 0.979
